We go through one compound from publication PMC10517462, “Small molecule targeting of the p38/Mk2 stress signaling pathways to improve cancer treatment” (BMC Cancer, 2023).

Molecules are shown by their SMILES.

In data set [1] the test system is MDA-MB-231 breast cancer cell line. Nature of the data set: CCK8 cell viability assay, MDA-MB-231. Type of data set: cell-based, human. To be noted: MK2.III 1 µM or etoposide 150 µM alone, 24 h. How it is done: (§1) To assess the effect of MK2.III kinase inhibitor and the etoposide (VP-16) on the viability of different cancer cell lines, cells were seeded in 96-well plates in a concentration of 5000 cells per well. After 12 h, etoposide and 1 μM MK2.III diluted in culture media were added into the wells for 24 h. NCI-H69 cells were exposed to a series of etoposide concentrations from 20 μM to 150 μM. MDA-MB-231, SW 620, and SW 480 cell lines were incubated with 150 μM etoposide. After treatment, 10 μL of the CCK-8 reagent (96992, Sigma) was added to each well for 1 h followed by optical density measurement at 450 nm using hybrid plate reader Synergy H1.
(Formazan colour is commonly taken as a measure of viable cells.)

Data set [2] has as its system NCI-H69 xenograft. Nature of the data set: Tumor (xenograft) suppression with combination chemotherapy in SCID mice. It counts as in vivo. The note with it: for Tumor Volume (mm^3) median (25th and 75th quartile): VP-16 12 mg/kg. How it is done: To establish the most suitable xenograft model for the main experiment we used two mouse lines – BALB/c Nude and SCID (both female, 6 weeks, n = 20, Charles River). Both mouse lines were injected with NCI-H69 cancer cells (xenograft). Before injection, cells were grown at 37 °C in RPMI-1640 medium containing 10% FBS and pen/strep. Cells were mixed with Matrigel (1:1) and depending on the group 5 × 10^6 or 10 × 10^6 cells were injected into a mouse subcutaneously along the spine to the level of the left scapula. Mice were divided into 4 groups: (1) 5 × 10^6 NCI-H69 SCID (n = 5); (2) 5 × 10^6 NCI-H69 Nude (n = 5); (3) 10 × 10^6 NCI-H69 SCID (n = 5); and (4) 10 × 10^6 NCI-H69 Nude (n = 5).
The main experiment (injection of the drugs) took place after the tumor growth was established. The tumor growth in mice following the injection of cells was monitored twice a week and upon reaching the volume of ~ 100 mm^3, animals were randomized into 5 groups (12 female SCID mice in each group). The drug treatment was performed as follows: the first group was a control and received a placebo in the form of PBS (tumor volume 95 ± 38 mm^3); the second group received 12 mg/kg of Etoposide (tumor volume 101 ± 51 mm^3); the third group was injected with 4 mg/kg of MK2.III (tumor volume 105 ± 44 mm^3); fourth and fifth groups were injected with 12 mg/kg of Etoposide and 4 mg/kg or 2 mg/kg of MK2.III (tumor volumes 112 ± 57 and 107 ± 49 mm^3 respectively). Drugs were injected intraperitoneally daily. Etoposide was injected 3 days after the randomization into groups and MK2.III was administered for 28 days. Tumor growth/suppression was measured using calipers every 3–4 days for the duration of the 28-day treatment and the tumor volume was calculated as follows:[…],
Antitumor properties of drugs in the test group were determined based on the slowing of the tumor growth or tumor volume compared with the control group receiving PBS. Animal welfare was monitored throughout the study period to ensure that animals in distress were euthanized by carbon dioxide asphyxiation. All the animals were also euthanized by carbon dioxide asphyxiation following the completion of the study.
Descriptive statistics were used to summarize the tumor size and data reported as medians and 25th and 75th quartiles. Wilcoxon sum rank test was used to investigate the effects of the treatments on tumor growth. […] Statistical analyses were performed on the SigmaPlot 11.0 software.

The test system of data set [3] is NCI-H69 cells. Nature of the data set: FACS-based (DRAQ7) viability assay. Type of data set: cell-based, human. Here is the method: […] Etoposide, SB203580 and MK2.III were all dissolved in 0.2% of DMSO before use. Cells treated only with the carrier molecule DMSO (0.2%) served as a control.
Viability analysis was performed by staining with the […], stoichiometric DNA stain DRAQ7 (640 or 633 nm excitation and 670 nm emission; Biostatus Limited). After 48-h treatment with DNA damaging agents and/or inhibitors, cells were washed once with RPMI 1640 and resuspended in 1 ml culture media at a concentration of less than 5 × 10^5/ ml. Cells were stained with 20 µM of DRAQ7 and incubated at 37 °C for 10 min before FACS Calibur cytometer analysis. Fluorescent signals were amplified using linear mode. Cell cycle analysis was performed either by staining DRAQ7 or Propidium Iodide (PI). Cells were stained with 20 µM of DRAQ7 and incubated at 37 °C for 10 min before analysis on a FACSCalibur cytometer. Propidium Iodide (PI, excited with 488 nm laser, collected with 585/52 bandpass filter) was used in the large-scale experiments. Samples were then fixed with 70% EtOH following the viability assay and stored at 4 °C overnight before the experiment. After fixation with 70% EtOH (added drop-wise) for 24 h, samples were centrifuged into the pellet and then washed twice with ice-cold PBS. The supernatant was discarded and pellets were resuspended in 100 µl of RNase A (100 µg/ml) and 400 µl of PI ([…] in PBS). Analysis of flow cytometry data was performed using FlowJo software. Untreated, unstained cells were used as a negative control to determine the location of viable cells on the dot plots. Events below a threshold size were interpreted as cellular debris and were removed from the dataset, leaving a whole cell population.

In data set [4] the test system is SW480 colorectal cancer cell line. Nature of the data set: CCK8 cell viability assay, SW480. The note with it: MK2.III 1 µM alone, 24 h. Type of data set: cell-based, human. Here is the method: as §1
Details of data set [5]: method as in PMID 26502061. The note with it: cited from earlier work.

With `O=C1NCCc2[nH]c(-c3ccnc(-c4cnc5ccccc5c4)c3)cc21` [MK2.III], the “Effect of single agent on viability” value in data set [1] and in data set [4] was “does not affect the viability” throughout. Also, the “Difference in tumor size versus control” value in data set [2] (at any checkpoint, etoposide 12 mg/kg, MK2.III 4 mg/kg, or etoposide + MK2.III 2 mg/kg) was “no significant difference”. Further, the “Tumor Volume (mm^3) median (25th and 75th quartile)” value was 516 (401;703) mm^3 in data set [2] (day 11 upon treatment, MK2.III 4 mg/kg IP daily); 843 (712;1197) mm^3 in data set [2] (day 18 upon treatment, MK2.III 4 mg/kg IP daily); 106 (72;132) mm^3 in data set [2] (day -1 upon treatment (baseline), MK2.III 4 mg/kg IP). Also, the “Viable cells (%)” value amounted to 87.4% in data set [3] (Table 1 dose response, agent alone 0.321 µM (lowest dose), 48 h); 90.2% in data set [3] (Table 1 dose response, agent alone 0.626 µM, 48 h); 87.3% in data set [3] (Table 1 dose response, agent alone 1.25 µM, 48 h); 88.4% in data set [3] (Table 1 dose response, agent alone 2.5 µM, 48 h); 83.5% in data set [3] (Table 1 dose response, agent alone 5.0 µM (highest dose), 48 h); 66.1% in data set [3] (Table 2, VP-16 0 µM (inhibitor alone: MK2.III 1.0 µM or SB203580 2.5 µM), DMSO control 74.6%). In addition, the Solubility result in data set [5] is “poor solubility”.
